Values of other authors as cited in patent US20070202162A1, “EXTENDED RELEASE PHARMACEUTICAL COMPOSITIONS” (priority 2006, published 2007).
Structures can show the parent of a compound that is named as a salt.

Settings: in water and ethanol

Compound: CC(C)NCC(O)COc1cccc2ccccc12 (stereo not shown) [Propranolol hydrochloride, 1-(Isopropylamino)-3-(1-naphthyloxy)-2-propanol]
- solubility: readily soluble in water and ethanol
